These results are taken from PubChem BioAssay AID1996.

Values after ≈ are worked out from the molar mass of the structure shown.

The conditions of the data set: buffer; pH 7.4; 200.0 µM.
What is called kinetic solubility is solubility judged after dilution from a stock solution rather than from solid. The molecule `COc1cc(N)c(Cl)cc1C(=O)OCC(=O)NCC1CCCO1` (stereo not given) had a kinetic solubility greater than 0.0514 mg/mL.
Under `Cc1cc(Br)cc2c1NC(=O)C2(O)CC(=O)c1ccco1` (stereo not given) stands 0.0477 mg/mL (≈ 136 µM); under `CSc1ncccc1C(=O)NC1CCCCCCC1`, 0.0217 mg/mL (≈ 77.9 µM); under `O=C(COC(=O)c1ccc(Br)c(S(=O)(=O)N2CCOCC2)c1)NCCc1ccccc1`, 0.0241 mg/mL (≈ 47.1 µM).
Next, `COc1cccc(NC(=O)COC(=O)Cc2ccc(Cl)cc2)c1`: greater than 0.0501 mg/mL; `CCc1ccc(CCC(=O)Nc2ccc(Cl)cc2)o1`: 0.0081 mg/mL (≈ 29.2 µM); `COc1ccc(NC(=O)CC2CC3CCC2C3)cn1` (stereo not given): 0.0299 mg/mL (≈ 115 µM).
Next, `COc1ccc(Cn2c(=S)[nH]c3ccccc32)cc1`: 0.0012 mg/mL (≈ 4.44 µM).
For `O=[N+]([O-])c1ccc(NS(=O)(=O)c2cccc3cccnc23)cc1`, the solubility (kinetic) was 0.0019 mg/mL (≈ 5.77 µM).
The molecule `CC1CCCN(CC(=O)Nc2ccc(S(=O)(=O)N3CCCC3)cc2)C1` (stereo not given) had a kinetic solubility greater than 0.0548 mg/mL.
In the case of `O=S(=O)(NC1CCCCC1)c1ccc(N2CCOCC2)nc1`, the kinetic solubility is greater than 0.0488 mg/mL.
For the molecule `OCCNCCc1c[nH]c2ccc(OCc3ccccc3)cc12`, the solubility (kinetic) is greater than 0.0466 mg/mL.
Next, `O=S(=O)(NC1CCSc2ccccc21)c1ccccc1` (stereo not given): 0.0156 mg/mL (≈ 51.1 µM).
Next, `CNC(=O)c1cc2c(s1)-c1ccccc1CC2`: 0.0052 mg/mL (≈ 21.4 µM).
Next, `COc1ccc(O)c(C2=Nc3ccccc3N=C(c3ccccc3)C2)c1`: less than 0.0004 mg/mL; `CC(NC(=S)Nc1ccc(OC(F)F)c(Cl)c1)C(C)(C)C` (stereo not given): 0.0023 mg/mL (≈ 6.83 µM).
`Cc1cccc2sc(NC(=O)C3CC3)nc12` gave a solubility (kinetic) of 0.0014 mg/mL (≈ 6.03 µM).
Molecule `Nc1nc(Nc2cccc(Cl)c2)nc(NCCO)c1[N+](=O)[O-]` displayed a solubility (kinetic) of 0.0065 mg/mL (≈ 20 µM). This solubility kinetic lies about 4.6-fold higher than the previous one.
In the case of `O=C(COC(=O)/C=C/c1ccc(Cl)c(Cl)c1)NC1CC1`, the kinetic solubility was 0.0044 mg/mL (≈ 14 µM).
Under `O=c1[nH]c2ccsc2c(=O)n1CCO` stands greater than 0.0318 mg/mL; under `CC(C)NC(=S)Nc1ccc2[nH]c(=O)[nH]c2c1`, greater than 0.0375 mg/mL; under `O=C(CCNC(=O)c1ccccc1Cl)OCC(=O)c1ccccc1`, greater than 0.0519 mg/mL.
Under `O=C(COc1ccccc1Cl)Nc1ccc2oc(=O)ccc2c1` stands less than 0.0007 mg/mL.
In turn, `COc1ccccc1N1CC(C(=O)NC2CCCCCC2)CC1=O` (stereo not given) displayed a kinetic solubility greater than 0.0496 mg/mL.
For the molecule `Nn1c(SCC(=O)Nc2ccc3c(c2)OCO3)nncc1=O`, the solubility (kinetic) is greater than 0.0482 mg/mL.
Next, `CN(CC(=O)Nc1ccc(F)cc1)C(=O)CN1C(=O)NC2(CCCCC2)C1=O`: 0.0007 mg/mL (≈ 1.79 µM); `CC(=O)NC1C(O)OC(CO)C(O)C1O` (stereo not given): greater than 0.0332 mg/mL.
Next, `CCCCNC(=S)Nc1ccc(SC(F)F)cc1`: greater than 0.0436 mg/mL; `CC(C)(C)NC(=O)NC(=O)CN1CCN(c2ccccc2O)CC1`: 0.0448 mg/mL (≈ 134 µM); `COCCSc1ccccc1C(=O)Nc1ccc(Cl)cc1`: 0.0441 mg/mL (≈ 137 µM).
With `COc1ccc(NC(=O)Cn2c(=O)oc3ccccc32)cc1`, the solubility (kinetic) was found to be 0.035 mg/mL (≈ 117 µM).
On to `Nc1cc(C(=O)O)ccc1Sc1ccccc1C(=O)O`, for which the solubility (kinetic) is greater than 0.0434 mg/mL.
Under `N/C(=N\OC(=O)/C=C/c1ccccc1)c1ccc(Cl)cc1` stands 0.0013 mg/mL (≈ 4.32 µM); under `O=C(CCN1C(=O)c2ccccc2C1=O)Nc1cccc(O)c1`, greater than 0.0465 mg/mL.
Next, `Cc1ccc(OCC(=O)N2CCN(C(=O)c3cccc(F)c3)CC2)cc1`: greater than 0.0535 mg/mL; `COc1ccc(OC)c(NC(=O)COC(=O)Cc2ccsc2)c1`: 0.0362 mg/mL (≈ 108 µM); `Cc1nc(-c2noc(-c3ccc(Cl)cc3)n2)c(C(F)(F)F)o1`: less than 0.0002 mg/mL.
Next, `CC(C)(C)NS(=O)(=O)c1ccc(NC(=S)NC(=O)C2CC2)cc1`: 0.003 mg/mL (≈ 8.44 µM); `CC(C)=CC(=O)N1CC[C@@H](N2CCN(c3ccccc3F)CC2)[C@H](O)C1`: greater than 0.0542 mg/mL; `O=C(c1cc2cc(Br)ccc2[nH]1)N1CCc2ccccc21`: less than 0.0004 mg/mL.
Consider `S=C(NCc1ccc2c(c1)OCO2)NC1CC1`, for which the kinetic solubility is greater than 0.0375 mg/mL.
The molecule `Cn1c(=O)c([N+](=O)[O-])c(NCC2CCCO2)c2ccccc21` (stereo not given) registered a kinetic solubility greater than 0.0455 mg/mL.
Turning to `CN(C)CCCNC(=S)Nc1ccc(Oc2ccccc2)cc1`, the solubility (kinetic) worked out at 0.0431 mg/mL (≈ 131 µM).
Under `Cc1nc(SCC(=O)NC(=O)NC(C)C)nc(C)c1C` stands greater than 0.0445 mg/mL.
`Cc1cc(NC(=O)c2ccco2)sc1C` gave a solubility (kinetic) greater than 0.0332 mg/mL.
`CC(=O)NCCc1c(C)n(Cc2ccccc2)c2ccccc12` had a solubility (kinetic) greater than 0.046 mg/mL.
Next, `O=C(Nc1scc(-c2ccccc2)c1C(=O)O)c1ccccc1F`: greater than 0.0512 mg/mL; `O=C(NC1C/C(=N/O)c2cc3c(cc21)OCO3)C(F)(F)F` (stereo not given): 0.0323 mg/mL (≈ 107 µM).
The molecule `COCCCn1c(SCC(=O)N2CCOCC2)nc2ccccc2c1=O` displayed a kinetic solubility of 0.0522 mg/mL (≈ 138 µM).
Under `CCCCn1c(CCCNC(=O)c2ccco2)nc2ccccc21` stands greater than 0.0488 mg/mL; under `COc1cc(OC)c(N(C)S(=O)(=O)c2cccc(C(=O)OCC(=O)N3CCOCC3)c2)cc1Cl`, 0.0566 mg/mL (≈ 110 µM); under `CCOC(=O)CCNC(=O)N1CCCC(CNS(=O)(=O)c2cccs2)C1` (stereo not given), greater than 0.0605 mg/mL.
The molecule `O=C1CCCc2ccccc2N1Cc1cccc(F)c1` registered a kinetic solubility of 0.0364 mg/mL (≈ 135 µM).
In turn, `Cc1cc(C)c(NC(=S)N(C)C)cc1C` came in with a kinetic solubility greater than 0.0334 mg/mL.
Under `CCOC(=O)c1ccc(CN2Cc3ccccc3C2=O)cc1` stands greater than 0.0443 mg/mL.
With `O=[N+]([O-])c1ccc(NCCCN2CCOCC2)nc1`, the kinetic solubility is greater than 0.0399 mg/mL.
Under `COc1cc(/C=C2\SC(N)=NC2=O)cc(Br)c1O` stands 0.0017 mg/mL (≈ 5.16 µM); under `CS(=O)(=O)Nc1ccccc1C(=O)OCC(=O)NC1CC1`, greater than 0.0469 mg/mL; under `Cc1ccc(O)c(NC(=O)c2cc(C)no2)c1`, greater than 0.0348 mg/mL.
Regarding `CCN(CC)P(=O)(Oc1ccccc1)Oc1ccccc1`, the kinetic solubility is 0.0342 mg/mL (≈ 112 µM).
Next, `NC(=O)C1CCN(C(=O)COc2ccc3c(c2)oc(=O)c2ccccc23)CC1`: 0.0108 mg/mL (≈ 28.4 µM); `CC(=O)Nc1ccc(N=c2cc([N+](=O)[O-])cc(Cl)n2O)cc1`: 0.029 mg/mL (≈ 89.9 µM); `CC(=O)Nc1ccc(OCC(O)Cn2nc(C)c(C)c2C)cc1` (stereo not given): greater than 0.0476 mg/mL.
Under `O=C1C=CC(=O)N1` stands 0.009 mg/mL (≈ 92.7 µM); under `CCOC(=O)c1sc(NC(=O)CCc2ccccc2)nc1C`, less than 0.0003 mg/mL; under `Nc1cccc(NC(=O)CCC(=O)NCc2ccco2)c1`, greater than 0.0431 mg/mL.
Turning to `CCOC(=O)C1Sc2ccccc2NC1=O` (stereo not given), the kinetic solubility was greater than 0.0356 mg/mL.
Next, `N#CC1=C(S)N(c2ccccc2)C(c2ccco2)NC1=O` (stereo not given): 0.037 mg/mL (≈ 124 µM); `COc1ccc2cc(CCl)c(Cl)nc2c1`: 0.0192 mg/mL (≈ 79.3 µM); `CCC(C)NC(=O)c1ccc(CSCc2ccccc2Cl)o1` (stereo not given): 0.0307 mg/mL (≈ 90.9 µM).
Next, `CC(=O)Nc1cccc(-c2nc3ccccc3o2)c1`: 0.0063 mg/mL (≈ 25 µM); `CC1CCCCC12NC(=O)N(CC(=O)Nc1ccc(OC(F)F)cc1)C2=O` (stereo not given): 0.0182 mg/mL (≈ 47.7 µM); `C=CCNC(=O)c1cc2c(=O)n3cccc(C)c3nc2s1`: 0.0034 mg/mL (≈ 11.4 µM).
For `COc1ccc(N2CCN(C(=O)c3cccc(NS(=O)(=O)c4cccc(F)c4)c3)CC2)cc1`, the solubility (kinetic) stood at 0.0528 mg/mL (≈ 112 µM). Against the preceding molecule, the solubility kinetic is about 16-fold higher.
Molecule `N#CC(C#N)=C1NC2(CCCCC2)Cc2ccccc21` registered a solubility (kinetic) of 0.0008 mg/mL (≈ 3.04 µM).
As for `CCCCNc1ccc(C(=O)OCCN(C)C)cc1.Cl`, the solubility (kinetic) is greater than 0.0451 mg/mL.
Next, `FC(F)(F)c1nc(NCc2cccnc2)c2ccccc2n1`: 0.0026 mg/mL (≈ 8.54 µM); `CCOC(=O)C(c1ccccc1)C(Nc1ccc(F)cc1)c1ccccn1` (stereo not given): 0.0119 mg/mL (≈ 32.7 µM).
In the case of `Cc1cc(C)c2nc(/N=C(\N)NC(=O)c3ccccc3)nc(C)c2c1`, the kinetic solubility was found to be 0.0013 mg/mL (≈ 3.9 µM).
Under `CSc1nc2c(c(=O)[nH]c(=O)n2C)n1CCCc1ccccc1` stands 0.024 mg/mL (≈ 72.6 µM); under `O=C(CN1C(=O)NC(CCc2ccccc2)C1=O)Nc1ccccc1C(F)(F)F` (stereo not given), 0.0052 mg/mL (≈ 12.8 µM).
Under `O=C(OCC(=O)N1CCc2ccccc2C1)c1ccc(O)cc1` stands 0.0045 mg/mL (≈ 14.5 µM); under `CCCCn1c(=O)c(C(=O)Nc2ccccc2F)c(O)c2ccccc21`, less than 0.0004 mg/mL.
Under `C=C(C)CNC(=S)NNC(=O)c1ccncc1` stands greater than 0.0375 mg/mL.
`Cc1ccc(C(=O)Nc2scc(-c3ccccc3)c2C(=O)O)cc1`: the solubility (kinetic) is greater than 0.0506 mg/mL.
Molecule `COc1ccc2[nH]c3c(=O)n(CCCN4CCOCC4)cnc3c2c1` yielded a solubility (kinetic) greater than 0.0514 mg/mL.
For `COc1cccc(CNC(=O)CCc2ccc(OC)c(OC)c2)c1`, the solubility (kinetic) was greater than 0.0494 mg/mL.
Turning to `CC(NC(=O)CN1CCOCC1)c1ccc(F)cc1` (stereo not given), the kinetic solubility was greater than 0.0399 mg/mL.
Under `Cc1cn(C2CC(OC(=O)C(C)C)C(CO)O2)c(=O)[nH]c1=O` (stereo not given) stands greater than 0.0468 mg/mL.
As for `CC(C)Cc1nc(N2CCNCC2)c(C#N)c2c1CCC2`, the kinetic solubility was 0.0411 mg/mL (≈ 145 µM).
Under `Cc1cccc(N2CCN(C(=O)c3ccccn3)CC2C)c1` (stereo not given) stands greater than 0.0443 mg/mL; under `NC(=O)c1sc2nc3c(cc2c1N)CCC3`, 0.0313 mg/mL (≈ 134 µM); under `COCCN(C(=S)Nc1c(C)cccc1C)C(C)c1cccs1` (stereo not given), 0.0161 mg/mL (≈ 46.2 µM).
For the molecule `CCC1CCCCN1CC(C)(C)NS(=O)(=O)c1ccccc1` (stereo not given), the kinetic solubility amounted to 0.0392 mg/mL (≈ 121 µM).
Next, `CC1CC1C(=O)OCC(=O)NCc1ccccc1` (stereo not given): greater than 0.0371 mg/mL; `O=C(OCC(=O)N1CCCC1)c1ccccc1O`: 0.0361 mg/mL (≈ 145 µM); `C=CCc1cccc2cc(C(=O)Nc3ccc(NC(C)=O)cc3)c(=O)oc12`: 0.0017 mg/mL (≈ 4.69 µM).
In the case of `O=C(CN1CCCc2ccccc21)N1CCc2ccccc21`, the solubility (kinetic) came out at 0.0048 mg/mL (≈ 16.4 µM).
Under `O=C(c1ccccc1F)N1CCC2(CC1)OCCO2` stands greater than 0.0398 mg/mL; under `COc1ccc(/C=N/NC(=O)c2ccccc2O)cc1COc1ccccn1`, greater than 0.0566 mg/mL.
Under `COc1cccc2c(C)cc(N3CCCCCC3)nc12` stands 0.0332 mg/mL (≈ 123 µM); under `OC(CN1CC=C(c2ccccc2)CC1)c1ccccc1` (stereo not given), 0.0408 mg/mL (≈ 146 µM).
Next, `O=C(COc1ccc(F)cc1Br)NCC1(N2CCCCC2)CCCCC1`: 0.055 mg/mL (≈ 129 µM); `CC1=CC(=O)C(C(C)C)=C/C1=N/OS(=O)(=O)c1ccccc1`: 0.0079 mg/mL (≈ 24.7 µM).
Take `Brc1ccc(-c2cn3ccccc3n2)cc1`: the kinetic solubility amounted to 0.0008 mg/mL (≈ 2.93 µM).
